This data set is described as follows: Seven days indicative acute toxicity after oral administration. The note with it: mouse, in vivo, mice. The method, then: The tested compounds were administered per os (p.o.) 15 minutes before the administration of the antigen: at least 6 rats were used for each dose. Seven days indicative acute toxicity after oral administration was assessed for the compounds of the invention, for example, a LD50 >800 mg/kg in mice was obtained for all the following compounds of the invention: […]

Broadly, the LD50 is the dose at which mortality reaches 50%. A high value points to a less toxic substance.

With `O=C(O)c1ccc2c(c1)C(=O)C(=Cc1cccs1)O2` [5-carboxy-2-(2'-thenylidene)-2H-benzofuran-3-one], the median lethal dose (LD50) at 168 h was greater than 800 mg/kg. In the case of `COc1ccc(OC)c(C=C2Oc3ccc(C(=O)O)cc3C2=O)c1` [K 13383, 5-carboxy-2-(2',5'-dimethoxy-benzylidene)-2H-benzofuran-3-one], the median lethal dose (LD50) at 168 h was greater than 800 mg/kg. The molecule `CC(C)Oc1cccc(C=C2Oc3ccc(C(=O)O)cc3C2=O)c1` [5-carboxy-2-(3'-isopropoxy-benzylidene)-2H-benzofuran-3-one] displayed an LD50 at 168 h greater than 800 mg/kg.

For the molecule `COc1ccccc1C=C1Oc2ccc(C(=O)O)cc2C1=O` [5-carboxy-2-(2'-methoxy-benzylidene)-2H-benzofuran-3-one], the LD50 at 168 h is greater than 800 mg/kg. `COc1ccc(OC(C)C)c(C=C2Oc3ccc(C(=O)O)cc3C2=O)c1` [K 13432, 5-carboxy-2-(2'-isopropoxy-5'-methoxy-benzylidene)-2H-benzofuran-3-one] showed a median lethal dose (LD50) at 168 h greater than 800 mg/kg. Molecule `COc1cc(C=C2Oc3ccc(C(=O)O)cc3C2=O)cc(OC)c1OC` [K 13364, 5-carboxy-2-(3',4',5'-trimethoxy-benzylidene)-2H-benzofuran-3-one] had a 50% lethal dose (LD50) at 168 h greater than 800 mg/kg.

Regarding `COc1cccc(C=C2Oc3ccc(C(=O)O)cc3C2=O)c1` [5-carboxy-2-(3'-methoxy-benzylidene)-2H-benzofuran-3-one], the LD50 at 168 h is greater than 800 mg/kg.

In turn, `COc1ccc(C=C2Oc3ccc(C(=O)O)cc3C2=O)cc1OC` [5-carboxy-2-(3',4'-dimethoxy-benzylidene)-2H-benzofuran-3-one] showed a 50% lethal dose (LD50) at 168 h greater than 800 mg/kg. Molecule `CC(C)Oc1ccccc1C=C1Oc2ccc(C(=O)O)cc2C1=O` [5-carboxy-2-(2'-isopropoxy-benzylidene)-2H-benzofuran-3-one] yielded an LD50 at 168 h greater than 800 mg/kg. Turning to `COc1ccc(C=C2Oc3ccc(C(=O)O)cc3C2=O)c(OC)c1OC` [K 13422, 5-carboxy-2-(2',3',4'-trimethoxy-benzylidene)-2H-benzofuran-3-one], the 50% lethal dose (LD50) at 168 h is greater than 800 mg/kg.

`COc1ccc(C=C2Oc3ccc(C(=O)O)cc3C2=O)cc1` [5-carboxy-2-(4'-methoxy-benzylidene)-2H-benzofuran-3-one] returned an LD50 at 168 h greater than 800 mg/kg.

The record behind these values is US4670457A, “2H-benzofuran-3-one-derivatives and process for their preparation” (Farmitalia Carlo Erba, S.p.A., priority 1978, dated 1987).
